Key:
[1] = biological target: T1, BRD9 (Homo sapiens, UniProt Q9H8M2); assay: BRD9 degradation, HiBiT-BRD9 KI HEK293 (LgBiT) cells, NanoGlo Lytic Endpoint assay (Assay Protocol 1); type: cell-based; details: BRD9 degradation; for Dmax at 1 µM / Dmax: HEK293; for Dmax at 1 µM: 1 μM compound at 6 h of treatment, read-out: Assay 1 Dmax
T1 sequence (Q9H8M2 1-597): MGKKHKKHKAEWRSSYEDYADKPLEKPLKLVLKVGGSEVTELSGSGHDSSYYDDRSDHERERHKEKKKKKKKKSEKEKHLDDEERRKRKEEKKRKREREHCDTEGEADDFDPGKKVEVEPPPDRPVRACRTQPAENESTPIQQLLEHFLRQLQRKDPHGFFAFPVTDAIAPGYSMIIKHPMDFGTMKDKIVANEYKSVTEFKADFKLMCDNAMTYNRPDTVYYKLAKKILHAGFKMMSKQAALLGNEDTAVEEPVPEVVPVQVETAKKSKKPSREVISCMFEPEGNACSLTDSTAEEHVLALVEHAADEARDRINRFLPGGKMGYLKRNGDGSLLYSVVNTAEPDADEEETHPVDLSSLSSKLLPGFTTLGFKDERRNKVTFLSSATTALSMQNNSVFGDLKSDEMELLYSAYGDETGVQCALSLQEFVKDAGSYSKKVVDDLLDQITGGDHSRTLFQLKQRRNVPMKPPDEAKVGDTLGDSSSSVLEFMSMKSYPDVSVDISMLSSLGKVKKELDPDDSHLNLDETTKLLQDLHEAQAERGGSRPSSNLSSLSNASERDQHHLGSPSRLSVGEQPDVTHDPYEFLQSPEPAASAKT
Method in brief: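 HiBiT-tagged BRD9 knock-in HEK293 (LgBiT) cells exposed to compounds for 6 h at 37 °C, 5% CO2. Residual BRD9 measured by HiBiT lytic luminescence. % BRD9 remaining normalised to DMSO-treated cells (high) and no-cell wells (low).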

[2] = biological target: T1, BRD9; assay: Degradation of BRD9 (IF), immunofluorescence in MV4-11 cells, 24 hours (Assay Protocol 2); type: cell-based; set-up: A suspension of MV4-11 cells (ATCC CRL-9591) was prepared; host or cells: MV4-11
Method in brief: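 MV4-11 cells treated with compound 24 h at 37° C., then fixed, permeabilised and immunostained for BRD9 (anti-BRD9 E4Q3F, Alexa 647 secondary, Hoechst counterstain). High-content imaging quantified nuclear BRD9 signal; % BRD9 remaining normalised to DMSO and 100 nM CFT-8634 controls.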

[3] = Table 2, Assay Protocol 1, 6 h of treatment, read-out: Assay 1 DC50
[4] = MV4-11, 24 h, Table 2, BRD9 degradation (IF), Assay Protocol 2, MV4-11 cells, read-out: Assay 2 DCmax
[5] = Table 2, BRD9 degradation (IF), Assay Protocol 2, MV4-11 cells, read-out: Assay 2 DC50
[6] = Assay protocol 1, read-out: DC50
[7] = Assay protocol 1, read-out: Dmax
[8] = Assay protocol 2, BRD9 degradation, read-out: DC50
[9] = MV4-11, Assay protocol 2, BRD9 degradation, read-out: Dmax

Row | Compound | Dmax at 1 µM ([1]; Table 2, Assay Protocol 1) | DC50 [1, 3] | Dmax [2, 4] | DC50 [2, 5] | DC50 [1, 6] | Dmax [1, 7] | DC50 [2, 8] | Dmax [2, 9] | other results
1 | COc1cc(-c2cn(C)c(=O)c(C)c2C)cc(OC)c1CN1CCN(Cc2cccc3c2CCN(C(=O)/C(C#N)=C/C(C)(C)C)C3C)CC1 (mixture of isomers) [Compound A7, (E/Z)-2-(5-((4-(2,6-dimethoxy-4-(1,4,5-trimethyl-6-oxo-1,6-dihydropyridin-3-yl)benzyl)piperazin-1-yl)methyl)-1-methyl-1,2,3,4-tetrahydroisoquinoline-2-carbonyl)-4,4-dimethylpent-2-enenitrile] | 40 to 70% | 1.25 to 10 nM | 40 to 70% | 10 to 25 nM | – | – | – | – | –
2 | COc1cc(-c2cn(C)c(=O)c(C)c2C)cc(OC)c1CN1CCN(Cc2cccc3c2CCN(C(=O)/C(C#N)=C/C2CC(F)(F)C2)C3C)C2(CC2)C1 (mixture of isomers) [Compound B116] | – | – | – | – | 1.25 to 10 nM | > 75% | < 1.25 nM | > 75% | –
3 | COc1cc(-c2cn(C)c(=O)c(C)c2C)cc(OC)c1CN1CCC2(CC1)CCN(c1cccc3c1CCN(C(=O)/C(C#N)=C/C(C)(C)C)C3C)CC2 (mixture of isomers) [Compound B39, (E/Z)-2-(5-(9-(2,6-dimethoxy-4-(1,4,5-trimethyl-6-oxo-1,6-dihydropyridin-3-yl)benzyl)-3,9-diazaspiro[5.5]undecan-3-yl)-1-methyl-1,2,3,4-tetrahydroisoquinoline-2-carbonyl)-4,4-dimethylpent-2-enenitrile] | – | – | – | – | 25 to 1000 nM | > 75% | 10 to 25 nM | 40 to 70% | –
4 | COc1cc(-c2cn(C)c(=O)c(C)c2C)cc(OC)c1CN(C)C1CCN(C(=O)/C(C#N)=C/C23CC(C2)C3)CC1 (mixture of isomers) [Compound B187, (E/Z)-3-(bicyclo[1.1.1]pentan-1-yl)-2-(4-((2,6-dimethoxy-4-(1,4,5-trimethyl-6-oxo-1,6-dihydropyridin-3-yl)benzyl)(methyl)amino)piperidine-1-carbonyl)acrylonitrile] | – | – | – | – | 1.25 to 10 nM | > 75% | 1.25 to 10 nM | > 75% | –
5 | COc1cc(-c2cn(C)c(=O)c(C)c2C)cc(OC)c1CN1CCN(C(=O)[C@@H]2CN(C(=O)/C(C#N)=C/c3nccs3)C[C@H]2C2CCCCC2)CC1 [Compound B209] | – | – | – | – | – | – | – | – | Dmax ([1]; Table 4, determined according to Assay Protocol 1, read-out: Dmax^1): 30 to 50%; DC50 ([1]; Table 4, determined according to Assay Protocol 1, read-out: DC50^1): > 200 nM; Dmax ([2]; MV4-11, Table 4, BRD9 degradation, determined according to Assay Protocol 2, read-out: Dmax^2): > 70%; DC50 ([2]; Table 4, BRD9 degradation, determined according to Assay Protocol 2, read-out: DC50^2): 25 to 200 nM
6 | COc1cc(-c2cn(C)c(=O)c(C)c2C)ccc1OC1CCN(Cc2cccc3c2CCN(C(=O)/C(C#N)=C/C(C)(C)C)C3C)CC1 (mixture of isomers) [Compound B127, (E/Z)-2-(5-((4-(2-methoxy-4-(1,4,5-trimethyl-6-oxo-1,6-dihydropyridin-3-yl)phenoxy)piperidin-1-yl)methyl)-1-methyl-1,2,3,4-tetrahydroisoquinoline-2-carbonyl)-4,4-dimethylpent-2-enenitrile] | – | – | – | – | 1.25 to 10 nM | > 75% | 1.25 to 10 nM | > 75% | –
7 | COc1cc(-c2cn(C)c(=O)c3cnccc23)cc(OC)c1CN1CCN(Cc2cccc3c2CCN(C(=O)/C(C#N)=C/C(C)(C)C)C3C)CC1 (mixture of isomers) [Compound A3] | 40 to 70% | 1.25 to 10 nM | 40 to 70% | 1.25 to 10 nM | – | – | – | – | –
8 | COc1cc(-c2cn(C)c(=O)c3cnccc23)cc(OC)c1CN1CCN(Cc2cccc3c2CCN(C(=O)/C(C#N)=C\C2(F)CC2)C3C)CC1 (mixture of isomers) [Compound A22, (E/Z)-2-(5-((4-(2,6-dimethoxy-4-(2-methyl-1-oxo-1,2-dihydro-2,7-naphthyridin-4-yl)benzyl)piperazin-1-yl)methyl)-1-methyl-1,2,3,4-tetrahydroisoquinoline-2-carbonyl)-3-(1-fluorocyclopropyl)acrylonitrile] | > 75% | 1.25 to 10 nM | > 75% | < 1.25 nM | – | – | – | – | –
9 | COc1ccc(/C=C(\C#N)C(=O)N2CCc3c(CN4CCN(Cc5c(OC)cc(-c6cn(C)c(=O)c(C)c6C)cc5OC)CC4)cccc3C2C)nc1 (mixture of isomers) [Compound B53, (E/Z)-2-(5-((4-(2,6-dimethoxy-4-(1,4,5-trimethyl-6-oxo-1,6-dihydropyridin-3-yl)benzyl)piperazin-1-yl)methyl)-1-methyl-1,2,3,4-tetrahydroisoquinoline-2-carbonyl)-3-(5-methoxypyridin-2-yl)acrylonitrile] | – | – | – | – | 1.25 to 10 nM | 40 to 70% | – | 40 to 70% | –
10 | COc1cc(-c2cn(C)c(=O)c(C)c2C)cc(OC)c1CN1CCN(Cc2cccc3c2CCN(C(=O)/C(C#N)=C/C(C)(C)C)C3C)C2(CC2)C1 (mixture of isomers) [Compound B47, (E/Z)-2-(5-((7-(2,6-dimethoxy-4-(1,4,5-trimethyl-6-oxo-1,6-dihydropyridin-3-yl)benzyl)-4,7-diazaspiro[2.5]octan-4-yl)methyl)-1-methyl-1,2,3,4-tetrahydroisoquinoline-2-carbonyl)-4,4-dimethylpent-2-enenitrile] | – | – | – | – | < 1.25 nM | > 75% | < 1.25 nM | > 75% | –
11 | COc1cc(-c2cn(C)c(=O)c3cnccc23)cc(OC)c1CN1CCN(Cc2cccc3c2CCN(C(=O)/C(C#N)=C/c2ncccc2F)C3C)CC1 (mixture of isomers) [Compound A42, (E/Z)-2-[5-[[4-[[2,6-dimethoxy-4-(2-methyl-1-oxo-2,7-naphthyridin-4-yl)phenyl]methyl]piperazin-1-yl]methyl]-1-methyl-3,4-dihydro-1H-isoquinoline-2-carbonyl]-3-(3-fluoro-2-pyridyl)prop-2-enenitrile] | 40 to 70% | 10 to 25 nM | 40 to 70% | < 1.25 nM | – | – | – | – | –
12 | COc1cc(-c2cn(C)c(=O)c(C)c2C)cc(OC)c1CN1CC2CC(C1)N2Cc1cccc(C2CCCN2C(=O)/C(C#N)=C/c2cccc(Br)n2)c1 (mixture of isomers) [Compound B12, (E/Z)-3-(6-bromopyridin-2-yl)-2-(2-(3-((3-(2,6-dimethoxy-4-(1,4,5-trimethyl-6-oxo-1,6-dihydropyridin-3-yl)benzyl)-3,6-diazabicyclo[3.1.1]heptan-6-yl)methyl)phenyl)pyrrolidine-1-carbonyl)acrylonitrile] | – | – | – | – | 10 to 25 nM | > 75% | 1.25 to 10 nM | > 75% | –
13 | COc1cc(-c2cn(C)c(=O)c(C)c2C)cc(OC)c1CN1CCN(Cc2cccc3c2CCN(C(=O)/C(C#N)=C/C(C)C)C3C)CC1 (mixture of isomers) [Compound A43] | 70 to 75% | 1.25 to 10 nM | 40 to 70% | < 1.25 nM | – | – | – | – | –
14 | COc1cccc(/C=C(\C#N)C(=O)N2CCc3c(CN4CCN(Cc5c(OC)cc(-c6cn(C)c(=O)c(C)c6C)cc5OC)CC4)cccc3C2C)n1 (mixture of isomers) [Compound A67, (E/Z)-2-(5-((4-(2,6-dimethoxy-4-(1,4,5-trimethyl-6-oxo-1,6-dihydropyridin-3-yl)benzyl)piperazin-1-yl)methyl)-1-methyl-1,2,3,4-tetrahydroisoquinoline-2-carbonyl)-3-(6-methoxypyridin-2-yl)acrylonitrile] | 40 to 70% | 1.25 to 10 nM | 40 to 70% | – | – | – | – | – | –

Reference: patent US20260092061A1, “COMPOUNDS FOR TARGETED PROTEIN DEGRADATION” (Amphista Therapeutics Limited, priority 2022, published 2026)
